From US8778966B2, “Quinolinone derivatives as PARP and tank inhibitors” (Janssen Pharmaceutica, NV, priority 2007, dated 2014)

Key:
tubulin = assay: Tubulin polymerization assay; format: biochemical; set-up: key: a compound showing 0 to 50% inhibition at 20 μM is reported as score 1; Score 2 compounds are defined as compound showing more than 50% inhibition at 20 μM and less than 50% inhibition at 5 μM; a compound showing more than 50% inhibition at 5 μM is reported as score 3; settings: tested at 20 μM and 5 μM
Outline: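 Cytoskeleton kit tubulin was run in a 10 µl final volume at 37 °C, with fluorescence read every minute for 1 h. Polymerization was taken as the maximum slope (4-point linear regression) and expressed as % of no-compound control. Compounds were tested at 20 µM, then at 5 µM if inhibition exceeded 50%, and scored by % inhibition.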

TANK-2 enzyme = target: T1, TANK-2 enzyme (Homo sapiens, UniProt Q9H2K2); assay: In vitro Scintillation Proximity Assay (SPA) for TANK-2 inhibitory activity; format: biochemical; settings: for IC50: read-out: in vitro SPA assay TANK-2 pIC50 (converted)
T1 construct: made in house
T1 sequence (Q9H2K2 1-1166): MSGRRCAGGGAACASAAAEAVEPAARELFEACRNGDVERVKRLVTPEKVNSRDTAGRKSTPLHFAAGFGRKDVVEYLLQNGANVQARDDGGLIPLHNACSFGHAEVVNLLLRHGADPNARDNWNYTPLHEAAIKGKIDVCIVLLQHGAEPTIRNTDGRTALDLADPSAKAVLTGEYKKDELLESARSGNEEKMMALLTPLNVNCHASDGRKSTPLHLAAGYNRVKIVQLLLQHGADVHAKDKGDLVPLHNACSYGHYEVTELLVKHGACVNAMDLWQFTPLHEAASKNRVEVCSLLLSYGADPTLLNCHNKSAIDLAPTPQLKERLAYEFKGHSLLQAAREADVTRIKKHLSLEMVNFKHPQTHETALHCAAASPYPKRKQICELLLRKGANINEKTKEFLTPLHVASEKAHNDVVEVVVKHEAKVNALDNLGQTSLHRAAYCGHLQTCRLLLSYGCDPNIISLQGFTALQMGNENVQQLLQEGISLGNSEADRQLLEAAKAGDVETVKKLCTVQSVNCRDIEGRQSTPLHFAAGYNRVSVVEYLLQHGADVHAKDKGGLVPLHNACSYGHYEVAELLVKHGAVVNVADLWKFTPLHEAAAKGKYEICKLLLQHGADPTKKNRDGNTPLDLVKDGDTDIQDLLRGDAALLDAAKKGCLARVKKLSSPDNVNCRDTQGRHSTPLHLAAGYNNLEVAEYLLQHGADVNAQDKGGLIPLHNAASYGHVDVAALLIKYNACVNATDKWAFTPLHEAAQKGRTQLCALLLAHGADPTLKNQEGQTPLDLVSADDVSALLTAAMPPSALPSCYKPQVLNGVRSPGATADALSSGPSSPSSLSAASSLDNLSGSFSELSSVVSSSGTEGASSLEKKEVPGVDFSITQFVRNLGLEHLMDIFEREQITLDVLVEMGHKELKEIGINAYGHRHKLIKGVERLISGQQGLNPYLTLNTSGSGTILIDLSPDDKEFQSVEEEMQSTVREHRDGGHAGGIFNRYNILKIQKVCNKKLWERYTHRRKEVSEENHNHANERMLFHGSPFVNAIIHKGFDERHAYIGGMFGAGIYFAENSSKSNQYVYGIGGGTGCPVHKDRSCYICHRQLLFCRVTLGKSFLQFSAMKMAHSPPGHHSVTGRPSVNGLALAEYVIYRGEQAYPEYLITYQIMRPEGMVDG
Outline: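 TANK-2 (8 μg/ml final) auto-poly(ADP-ribosyl)ation with [3H]-NAD+/NAD donor was run in Ni flash plates in Tris/HCl pH 7.4 buffer with DTT and MgCl2, 120 min at room temperature, then stopped with excess NAD and scintillation-counted. Blank-corrected cpm was expressed as % of enzyme control, and IC50 was linearly interpolated and reported as pIC50.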

Compound	IC50 (TANK-2 enzyme) [nM]	other results
CCc1cc2ccc(C(C)(C#N)Cc3cccc(N4CCN(C)CC4)c3)cc2[nH]c1=O (centres unmarked) [Compound 66]	31.6	tubulin polymerisation score (tubulin): 1 (a compound showing 0 to 50% inhibition at 20 μM is reported as score 1)
CCOP(=O)(OCC)c1cccc(CC(C)(C#N)c2ccc3cc(CC)c(=O)[nH]c3c2)c1 (centres unmarked) [Compound 50]	200	melting point: 80 °C
CCc1cc2ccc(C(C)(C#N)Cc3cc(Cl)ccc3OC)cc2[nH]c1=O (centres unmarked) [Compound 80]	126	
CCc1cc2ccc(C(C)(C#N)Cc3ccc(F)c(C)c3)cc2[nH]c1=O (centres unmarked) [Compound 79]	79.4	
CCc1cc2ccc(C(C)(C#N)Cc3ccncc3)cc2[nH]c1=O (centres unmarked) [Compound 98]	31.6	tubulin polymerisation score (tubulin): 1 (a compound showing 0 to 50% inhibition at 20 μM is reported as score 1)
CCc1cc2ccc(C(C)(C#N)Cc3cc(Cl)cc4c3OCOC4)cc2[nH]c1=O (centres unmarked) [Compound 92]		in vitro SPA assay TANK-2 pIC50 (TANK-2 enzyme): 7.1
Cc1cc2ccc(C(C)(C#N)Cc3nc4ccccc4s3)cc2[nH]c1=O (centres unmarked) [Compound 75]	251	tubulin polymerisation score (tubulin): 1 (a compound showing 0 to 50% inhibition at 20 μM is reported as score 1)
CCc1cc2ccc(C(C)(C#N)Cc3ccc(OC)c(C#N)c3)cc2[nH]c1=O (centres unmarked) [Compound 77]	100	
Cc1cc2ccc(C(C)(C#N)Cc3cc4ccccc4[nH]3)cc2[nH]c1=O (centres unmarked) [Compound 234]	794	melting point: > 260 °C
CCc1cc2ccc(C(C)(C#N)CCOc3cc(Cl)c(Cl)cc3Cl)cc2[nH]c1=O (centres unmarked) [Compound 277]	2000	tubulin polymerisation score (tubulin): 2
CCc1cc2ccc(C(C)(C#N)Cc3cccc(CNC)c3)cc2[nH]c1=O (centres unmarked) [Compound 59]	79.4	
CCc1cc2ccc(C(C)(C#N)Cc3ccccc3)cc2[nH]c1=O (centres unmarked) [Compound 44]	39.8	melting point: 168 °C
CCc1cc2ccc(C(C)(C#N)Cc3cc(Cl)cc4c3OCOC4)cc2[nH]c1=O (centres unmarked) [Compound 90]	79.4	
CCc1cc2ccc(C(C)(C#N)Cc3ccccc3C#N)cc2[nH]c1=O (centres unmarked) [Compound 101]	39.8	
Cc1cc2ccc(C(C)(C#N)Cc3ccccc3)cc2[nH]c1=O (centres unmarked) [Compound 76]	31.6	
CCc1cc2ccc(C(C)(C#N)Cc3cccc(C(=O)NCCOC)c3)cc2[nH]c1=O (centres unmarked) [Compound 62]	79.4	
CCc1cc2ccc(C(C)(C#N)Cc3c(F)ccc(C)c3F)cc2[nH]c1=O (centres unmarked) [Compound 41]	79.4	melting point: 190 °C
CCc1cc2ccc(C(C)(C#N)Cc3c(C)cccc3C)cc2[nH]c1=O (centres unmarked) [Compound 84]	126	
CCc1cc2ccc(C(C)(C#N)Cc3cc(OC)cc(OC)c3)cc2[nH]c1=O (centres unmarked) [Compound 332]	501	

Compound	IC50 (TANK-2 enzyme) [nM]	other results
CCc1cc2ccc(C(C)(C#N)Cc3ccccc3OC(F)(F)F)cc2[nH]c1=O (centres unmarked) [Compound 102]	200	
CCc1cc2ccc(C(C)(C#N)Cc3cccc(N4CCNCC4)c3)cc2[nH]c1=O (centres unmarked) [Compound 64]	25.1	
CCc1cc2ccc(C(C)(C#N)Cc3cccc(N4CCCCC4)c3)cc2[nH]c1=O (centres unmarked) [Compound 65]	39.8	
CCc1cc2ccc(C(C)(C#N)Cc3cc4c(cc3Cl)OCO4)cc2[nH]c1=O (centres unmarked) [Compound 91]	63.1	
CCc1cc2ccc(C(C)(C#N)Cc3ccc(F)c(C#N)c3)cc2[nH]c1=O (centres unmarked) [Compound 267]	251	tubulin polymerisation score (tubulin): 2
CCc1cc2ccc(C(C)(C#N)Cc3cc(Cl)ccc3Cl)cc2[nH]c1=O (centres unmarked) [Compound 99]	79.4	tubulin polymerisation score (tubulin): 3 (a compound showing more than 50% inhibition at 5 μM is reported as score 3)
CCc1cc2ccc(C(C)(C#N)Cc3cccc(CN4CCN(C)CC4)c3)cc2[nH]c1=O (centres unmarked) [Compound 57]	126	
CCc1cc2ccc(C(C)(C#N)CCOc3ccccc3C#N)cc2[nH]c1=O (centres unmarked) [Compound 276]	79.4	tubulin polymerisation score (tubulin): 1 (a compound showing 0 to 50% inhibition at 20 μM is reported as score 1)
CCc1cc2ccc(C(C)(C#N)Cc3ccc(Cl)c(C(F)(F)F)c3)cc2[nH]c1=O (centres unmarked) [Compound 82]	398	
Cc1cc2ccc(C(C)(C#N)Cc3cc4ccccc4s3)cc2[nH]c1=O (centres unmarked) [Compound 71]	251	
CCc1cc2ccc(C(C)(C#N)Cc3cccc(CNCCN4CCOCC4)c3)cc2[nH]c1=O (centres unmarked) [Compound 61]	100	
CCc1cc2ccc(C(C)(C#N)Cc3cccc4nnn(C)c34)cc2[nH]c1=O (centres unmarked) [Compound 94]	251	
CCc1cc2ccc(C(C)(C#N)CCOc3ccccc3F)cc2[nH]c1=O (centres unmarked) [Compound 278]	316	
CCc1cc2ccc(C(C)(C#N)Cc3cccc(C(=O)N(C)C)c3)cc2[nH]c1=O (centres unmarked) [Compound 63]	200	
CCc1cc2ccc(C(C)(C#N)Cc3cccc(OCCCN4CCN(C)CC4)c3)cc2[nH]c1=O (centres unmarked) [Compound 69]	63.1	
Cc1cc2ccc(C(C)(C#N)Cc3ccc(C(F)(F)F)o3)cc2[nH]c1=O (centres unmarked) [Compound 73]	251	
CCc1cc2ccc(C(C)(C#N)Cc3cc(C)ccc3C)cc2[nH]c1=O (centres unmarked) [Compound 78]	158	
CCc1cc2ccc(C(C)(C#N)Cc3cccc(CN4CCOCC4)c3)cc2[nH]c1=O (centres unmarked) [Compound 58]	316	
CCc1cc2ccc(C(C)(C#N)Cc3cccc(Br)c3C)cc2[nH]c1=O (centres unmarked) [Compound 81]	100	

Compound	IC50 (TANK-2 enzyme) [nM]	other results
CCc1cc2ccc(C(C)(C#N)Cc3cccnc3)cc2[nH]c1=O (centres unmarked) [Compound 97]	63.1	
Cc1cc2ccc(C(C)(C#N)Cc3noc(-c4cccc(C(F)(F)F)c4)n3)cc2[nH]c1=O (centres unmarked) [Compound 70]	200	
CCc1cc2ccc(C(C)(C#N)Cc3cccc(OCC4CC4)c3)cc2[nH]c1=O (centres unmarked) [Compound 67]	126	
CCc1cc2ccc(C(C)(C#N)Cc3cccc(OCCCN4CCOCC4)c3)cc2[nH]c1=O (centres unmarked) [Compound 68]	63.1	
CCc1cc2ccc(C(C)(C#N)Cc3ccc4nccnc4c3)cc2[nH]c1=O (centres unmarked) [Compound 87]	50.1	
CCc1cc2ccc(C(C)(C#N)Cc3nn(C)c4ccccc34)cc2[nH]c1=O (centres unmarked) [Compound 95]	79.4	tubulin polymerisation score (tubulin): 2
CCc1cc2ccc(C(C)(C#N)Cc3cn4ccccc4n3)cc2[nH]c1=O (centres unmarked) [Compound 96]	100	tubulin polymerisation score (tubulin): 1 (a compound showing 0 to 50% inhibition at 20 μM is reported as score 1)
CCc1cc2ccc(C(C)(C#N)CCOc3ccc4c(c3)OCO4)cc2[nH]c1=O (centres unmarked) [Compound 279]	398	
CCc1cc2ccc(C(C)(C#N)Cc3c(C)c(C)cc(C)c3C)cc2[nH]c1=O (centres unmarked) [Compound 88]	200	
CCc1cc2ccc(C(C)(C#N)Cc3ccc(C)c(F)c3F)cc2[nH]c1=O (centres unmarked) [Compound 83]	79.4	
CCc1cc2ccc(C(C)(C#N)Cc3cccc(CNCCOC)c3)cc2[nH]c1=O (centres unmarked) [Compound 60]	63.1	
CCc1cc2ccc(C(C)(C#N)Cc3cccc(CN(C)C)c3)cc2[nH]c1=O (centres unmarked) [Compound 7]	158	
CCc1cc2ccc(C(C)(C#N)Cc3c(C)c(C)c(C)c(C)c3C)cc2[nH]c1=O (centres unmarked) [Compound 89]	316	
CCc1cc2ccc(C(C)(C#N)Cc3ccccc3C(F)(F)F)cc2[nH]c1=O (centres unmarked) [Compound 103]	79.4	
Cc1cc2ccc(C(C)(C#N)Cc3cccc4cccnc34)cc2[nH]c1=O (centres unmarked) [Compound 74]	126	
Cc1cc2ccc(C(C)(C#N)Cc3ccc(Cl)s3)cc2[nH]c1=O (centres unmarked) [Compound 72]	251	
CCc1cc2ccc(C(C)(C#N)Cc3nc4ccccc4o3)cc2[nH]c1=O (centres unmarked) [Compound 85]	100	tubulin polymerisation score (tubulin): 1 (a compound showing 0 to 50% inhibition at 20 μM is reported as score 1)
CCc1cc2ccc(C(C)(C#N)Cc3nncn3C)cc2[nH]c1=O (centres unmarked) [Compound 93]	398	
CCc1cc2ccc(C(C)(C#N)Cc3csc(C)n3)cc2[nH]c1=O (centres unmarked) [Compound 86]	158	
